22 compounds from article PMC11202169, “A Novel Fluorescence-Based Microplate Assay for High-Throughput Screening of hSULT1As Inhibitors” (Biosensors, 2024) can be followed below.

Common to all, as to format: biochemical
Assay [1] addresses T1, hSULT1A2 (Homo sapiens, UniProt P50226).
T1 construct: 6-histidine tag (N); TEV site (N); made in house; host or cells: Escherichia coli BL21 (DE3), pET29a(+)
Kind of assay: Fluorescence-based microplate inhibition assay, hSULT1A2-catalyzed HN-241 4-O-sulfation. As to conditions: for remaining activity at 10 µM: 0.25 h, read-out: Residue activity (%) hSULT1A2; for remaining activity at 10 µM / Residue activity (%) hSULT1A2: test compound 10 μM, HN-241 5 μM, 15 min; for IC50: hSULT1A2-catalyzed HN-241 4-O-sulfation.

The target of assay [2] is T2, hSULT1A3 (Homo sapiens, UniProt P0DMM9).
T2 construct: 6-histidine tag (N); TEV site (N); made in house; host or cells: Escherichia coli BL21 (DE3), pET29a(+)
The assay is described as follows: Fluorescence-based microplate inhibition assay, hSULT1A3-catalyzed HN-241 4-O-sulfation. As to conditions: for activity at 10 µM / Residue activity (%) hSULT1A3: test compound 10 μM, HN-241 10 μM, 15 min; for activity at 10 µM: read-out: Residue activity (%) hSULT1A3.

Assay [3] addresses T3, hSULT1A1 (Homo sapiens, UniProt P50225).
T3 construct: 6-histidine tag (N); TEV site (N); made in house; host or cells: Escherichia coli BL21 (DE3), pET29a(+)
Kind of assay: Fluorescence-based microplate inhibition assay, hSULT1A1-catalyzed HN-241 4-O-sulfation.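 As to all read-outs here: reaction started with 200 µM PAPS at 37 °C, fluorescence read continuously (Ex 350 nm, Em 450 nm), activity expressed relative to DMSO-only control without inhibitor.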 As to conditions: for IC50: hSULT1A1-catalyzed HN-241 4-O-sulfation; for activity at 1 µM / Residue activity (%) hSULT1A1: test compound 1 μM, HN-241 1 μM, 15 min; for activity at 1 µM: read-out: Residue activity (%) hSULT1A1.

T1 sequence (P50226 whole entry): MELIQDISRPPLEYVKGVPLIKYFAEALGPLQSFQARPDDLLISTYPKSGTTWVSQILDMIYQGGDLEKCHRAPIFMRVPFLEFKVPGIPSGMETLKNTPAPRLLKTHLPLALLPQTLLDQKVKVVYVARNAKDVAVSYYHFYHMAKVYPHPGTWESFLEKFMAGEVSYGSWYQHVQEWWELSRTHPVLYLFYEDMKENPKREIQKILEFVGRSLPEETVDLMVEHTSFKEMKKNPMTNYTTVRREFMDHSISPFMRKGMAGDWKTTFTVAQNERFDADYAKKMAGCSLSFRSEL
T2 sequence (P0DMM9 whole entry): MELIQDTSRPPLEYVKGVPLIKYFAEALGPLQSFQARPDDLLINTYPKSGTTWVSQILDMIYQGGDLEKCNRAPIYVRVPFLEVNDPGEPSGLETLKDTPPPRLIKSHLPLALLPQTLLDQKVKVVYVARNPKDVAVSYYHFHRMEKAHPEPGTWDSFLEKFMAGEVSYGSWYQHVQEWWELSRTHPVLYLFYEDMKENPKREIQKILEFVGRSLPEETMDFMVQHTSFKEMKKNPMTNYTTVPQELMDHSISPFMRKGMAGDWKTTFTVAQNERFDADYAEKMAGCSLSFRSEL
T3 sequence (P50225 whole entry): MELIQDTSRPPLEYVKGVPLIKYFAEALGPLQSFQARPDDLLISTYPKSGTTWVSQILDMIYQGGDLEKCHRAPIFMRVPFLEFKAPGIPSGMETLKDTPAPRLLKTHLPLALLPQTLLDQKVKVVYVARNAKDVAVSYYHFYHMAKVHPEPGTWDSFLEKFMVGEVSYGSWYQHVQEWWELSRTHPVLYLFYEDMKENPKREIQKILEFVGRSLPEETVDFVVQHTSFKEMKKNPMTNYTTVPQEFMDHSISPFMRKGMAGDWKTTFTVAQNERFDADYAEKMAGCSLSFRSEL

One may read the IC50 as the concentration needed to halve the response being measured. Low readings indicate greater potency, high ones weaker potency. For `Cc1cc(O)c2c(c1)C(=O)c1cc(O)cc(O)c1C2=O` [Emodin], in assay [1], the remaining activity at 10 µM came out at 0% and half-maximal inhibition (IC50) required 0.36 ± 0.0226 µM. In addition, the activity at 10 µM in assay [2] was determined as 65%. Also, in assay [3], the IC50 worked out at 0.0765 ± 0.00528 µM and the activity at 1 µM was found to be 0%.
Take `C=C(C)[C@@H]1CC[C@]2(C(=O)O)CC[C@]3(C)[C@H](CC[C@@H]4[C@@]5(C)CC[C@@H](O)C(C)(C)[C@@H]5CC[C@]43C)[C@@H]12` [Epibetulinic acid]: in assay [1], the remaining activity at 10 µM worked out at 111%. The activity at 10 µM in assay [2] is 121%. The activity at 1 µM in assay [3] amounted to 106%.
As to `COc1ccc(-c2oc3c(CC=C(C)C)c(O[C@@H]4O[C@H](CO)[C@@H](O)[C@H](O)[C@H]4O)cc(O)c3c(=O)c2O[C@@H]2O[C@@H](C)[C@H](O)[C@@H](O)[C@H]2O[C@@H]2O[C@@H](C)[C@H](O)[C@@H](O)[C@H]2O)cc1` [Epimedin C], the “Residue activity (%) hSULT1A2” value in assay [1] is 95.77%. In assay [2], the “Residue activity (%) hSULT1A3” value is on record as 107.48%. The “Residue activity (%) hSULT1A1” value in assay [3] was 108.62%.
Take `C[C@@H]1O[C@@H](OC[C@H]2O[C@@H](Oc3cc(O)c4c(c3)O[C@H](c3ccc(O)c(O)c3)CC4=O)[C@H](O)[C@@H](O)[C@@H]2O)[C@H](O)[C@H](O)[C@H]1O` [Eriocitrin]: the remaining activity at 10 µM in assay [1] worked out at 111%. Moreover, the activity at 10 µM in assay [2] stood at 104%. The activity at 1 µM in assay [3] worked out at 65.5%.
For the compound `CC(C)=CC/C=C(/C)[C@H]1CC[C@]2(C)[C@@H]1[C@H](O)C[C@@H]1[C@@]3(C)CC[C@H](O)C(C)(C)[C@@H]3[C@@H](O[C@@H]3O[C@H](CO)[C@@H](O)[C@H](O)[C@H]3O[C@@H]3O[C@@H](C)[C@H](O)[C@@H](O)[C@H]3O)C[C@]12C` [Ginsenoside F4], in assay [1], the “Residue activity (%) hSULT1A2” value was found to be 89.89%. The “Residue activity (%) hSULT1A3” value in assay [2] is on record as 99.83%. The “Residue activity (%) hSULT1A1” value in assay [3] was 99.89%.
For the compound `CC(C)=CCC[C@](C)(O)[C@H]1CC[C@]2(C)[C@@H]1[C@H](O)C[C@@H]1[C@@]3(C)CC[C@H](O)C(C)(C)[C@@H]3[C@@H](O[C@@H]3O[C@H](CO)[C@@H](O)[C@H](O)[C@H]3O[C@@H]3O[C@H](CO)[C@@H](O)[C@H](O)[C@H]3O)C[C@]12C` [Ginsenoside Rf], the remaining activity at 10 µM in assay [1] amounted to 104%. In addition, the activity at 10 µM in assay [2] was 104%. For the same compound, in assay [3], the activity at 1 µM was 102%.
On to `CC(C)=CCC[C@](C)(O)[C@H]1CC[C@]2(C)[C@@H]1[C@H](O)C[C@@H]1[C@@]3(C)CC[C@H](O)C(C)(C)[C@@H]3[C@@H](O[C@@H]3O[C@H](CO)[C@@H](O)[C@H](O)[C@H]3O[C@@H]3O[C@@H](C)[C@H](O)[C@@H](O)[C@H]3O)C[C@]12C` [Ginsenoside Rg2], for which the remaining activity at 10 µM in assay [1] came to 106%. Also, the activity at 10 µM in assay [2] is 100%. For the same compound, in assay [3], the activity at 1 µM worked out at 113%.
Turning to `C=C(CCC=C(C)C)[C@H]1CC[C@]2(C)[C@@H]1[C@H](O)C[C@@H]1[C@@]3(C)CC[C@H](O)C(C)(C)[C@@H]3[C@@H](O[C@@H]3O[C@H](CO)[C@@H](O)[C@H](O)[C@H]3O[C@@H]3O[C@@H](C)[C@H](O)[C@@H](O)[C@H]3O)C[C@]12C` [Ginsenoside Rg6], the “Residue activity (%) hSULT1A2” value in assay [1] is recorded as 103.59%. In assay [2], the “Residue activity (%) hSULT1A3” value is 124.68%. Further, the “Residue activity (%) hSULT1A1” value in assay [3] was 100.32%.
Turning to `CC(C)=CCC[C@](C)(O)[C@H]1CC[C@]2(C)[C@@H]1[C@H](O)C[C@@H]1[C@@]3(C)CC[C@H](O)C(C)(C)[C@@H]3[C@@H](O[C@@H]3O[C@H](CO)[C@@H](O)[C@H](O)[C@H]3O)C[C@]12C` [Ginsenoside Rh1], the remaining activity at 10 µM in assay [1] worked out at 96.5%. The activity at 10 µM in assay [2] stood at 100%. The activity at 1 µM in assay [3] was 114%.
Turning to `C=C(CCC=C(C)C)[C@H]1CC[C@]2(C)[C@@H]1[C@H](O)C[C@@H]1[C@@]3(C)CC[C@H](O[C@@H]4O[C@H](CO)[C@@H](O)[C@H](O)[C@H]4O)C(C)(C)[C@@H]3CC[C@]12C` [Ginsenoside Rk2], in assay [1], the “Residue activity (%) hSULT1A2” value turned out to be 106.88%. Besides, the “Residue activity (%) hSULT1A3” value in assay [2] was 94.83%. In assay [3], the “Residue activity (%) hSULT1A1” value was determined as 97.02%.
As for `COc1cc2c(=O)c(-c3ccc(O)cc3)coc2cc1O[C@@H]1O[C@H](CO)[C@@H](O)[C@H](O)[C@H]1O` [Glycitin], the “Residue activity (%) hSULT1A2” value in assay [1] came out at 97.40%. In addition, in assay [2], the “Residue activity (%) hSULT1A3” value was 114.83%. Moreover, the “Residue activity (%) hSULT1A1” value in assay [3] was determined as 98.37%.
Take `CC1(C)[C@@H](O[C@H]2O[C@H](C(=O)O)[C@@H](O)[C@H](O)[C@H]2O[C@@H]2O[C@H](C(=O)O)[C@@H](O)[C@H](O)[C@H]2O)CC[C@]2(C)[C@H]3C(=O)C=C4[C@@H]5C[C@@](C)(C(=O)O)CC[C@]5(C)CC[C@@]4(C)[C@]3(C)CC[C@@H]12` [Glycyrrhizic acid]: in assay [1], the remaining activity at 10 µM was determined as 112%. In addition, the activity at 10 µM in assay [2] is 121%. Moreover, the activity at 1 µM in assay [3] was 106%.
Regarding `O=c1cc(-c2ccc(Oc3c(O)cc4oc(-c5ccc(O)cc5)cc(=O)c4c3O)cc2)oc2cc(O)cc(O)c12` [Hinokiflavone], in assay [1], the remaining activity at 10 µM is 0% and the half-inhibitory concentration (IC50) is 0.11 ± 0.0147 µM. Also, in assay [2] (hSULT1A3-catalyzed HN-241 4-O-sulfation), the IC50 was 2.13 ± 0.182 µM. In assay [2], the activity at 10 µM turned out to be 9.46%. Besides, in assay [3], the half-maximal inhibitory concentration (IC50) was determined as 0.0189 ± 0.00117 µM and the activity at 1 µM amounted to 0%.
For the compound `COc1ccc(-c2oc3c(CC=C(C)C)c(O[C@@H]4O[C@H](CO)[C@@H](O)[C@H](O)[C@H]4O)cc(O)c3c(=O)c2O[C@@H]2O[C@@H](C)[C@H](O)[C@@H](O)[C@H]2O)cc1` [Icariin], in assay [1], the remaining activity at 10 µM was determined as 85.1%. Moreover, the activity at 10 µM in assay [2] was found to be 105%. In addition, the activity at 1 µM in assay [3] came out at 85.5%.
As for `COc1ccc(-c2oc3c(CC=C(C)C)c(O[C@@H]4O[C@H](CO)[C@@H](O)[C@H](O)[C@H]4O)cc(O)c3c(=O)c2O)cc1` [Icariside I], in assay [1], the “Residue activity (%) hSULT1A2” value is on record as 103.62%. For the same compound, the “Residue activity (%) hSULT1A3” value in assay [2] came to 104.97%. Also, the “Residue activity (%) hSULT1A1” value in assay [3] worked out at 91.81%.
As for `CC(C)=CCOc1c2occc2cc2ccc(=O)oc12` [Imperatorin], the remaining activity at 10 µM in assay [1] was found to be 94.3%. Moreover, in assay [2], the activity at 10 µM came to 128%. For the same compound, the activity at 1 µM in assay [3] worked out at 101%.
With `CC(C)Oc1ccc2c(=O)c(-c3ccccc3)coc2c1` [Ipriflavone], in assay [1], the remaining activity at 10 µM is 89.5%. Further, the activity at 10 µM in assay [2] is 117%. The activity at 1 µM in assay [3] was 61.3%.
On the same counts, the results for `CC(C)=CCOc1c2ccoc2cc2oc(=O)ccc12` [Isoimperatorin] are 106%, 92.1% and 92.5%.
For `COc1cc(-c2oc3cc(O)cc(O)c3c(=O)c2O)ccc1O` [Isorhamnetin], in that order: 0.39%, 58.3% and 1.36%.
As to `COc1cc(O)c(CC=C(C)C)c2c1C(=O)CC(c1ccc(O)cc1)O2` (stereo not drawn) [Isoxanthohumol], the remaining activity at 10 µM in assay [1] is 68.4%. The activity at 10 µM in assay [2] is 88%. Further, the activity at 1 µM in assay [3] was 15.8%.
Take `COc1c(/C=C/C(=O)c2ccc(O)c(CC=C(C)C)c2)ccc(O)c1O` [Licochalcone D]: the remaining activity at 10 µM in assay [1] was 0.21%. Also, in assay [2], the activity at 10 µM was determined as 30.9%. For the same compound, in assay [3], the IC50 amounted to 0.00537 ± 0.00018 µM and the activity at 1 µM is 0%.
For `O=C1C[C@@H](c2ccc(O)cc2)Oc2cc(O)ccc21` [Liquiritigenin], the “Residue activity (%) hSULT1A2” value in assay [1] is on record as 25.92%. In addition, the “Residue activity (%) hSULT1A3” value in assay [2] is given as 76.68%. In assay [3], the “Residue activity (%) hSULT1A1” value was 58.91%.
